Several values for one entry are separate records, joined by “and”; a condition that tells them apart may be missing. Identical values can stand only once.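 Following 48 hours of exposure in 96-well plates, responses at five concentrations were used to interpolate endpoints linearly. At the GI50, growth is halved. TGI marks complete inhibition of growth.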
Key:
Test in all cases: inhibition of tumour cell growth, NCI panel, 48 h
DLD-1 colon = test system: DLD-1 colon
LXFL 529 NSCLC = test system: LXFL 529 NSCLC
BT-549 breast = test system: BT-549 breast
MCF7 breast = test system: MCF7 breast
MDA-MB-231 breast = test system: MDA-MB-231 breast
MDA-N = test system: MDA-N
T-47D breast = test system: T-47D breast
XF 498 CNS = test system: XF 498 CNS

For O/N=C1\C(=C\c2ccc3c(c2)OCCO3)CCCC1C(NO)c1ccc2c(c1)OCCO2 (stereo unspecified), the TGI (DLD-1 colon) was greater than 100 µM and the TGI (LXFL 529 NSCLC) was 62.7 µM.
With C[C@H]1CCC2C(OC(=O)[C@@H]2CN(C)C)[C@]2(C)C(=O)C=CC12O (stereo partly specified) the TGI (DLD-1 colon) was 11 µM, the TGI (BT-549 breast) was 25.2 µM and the TGI (MCF7 breast) was 24.5 µM. It also gave a TGI (MDA-MB-231 breast) of 25.4 µM, a TGI (LXFL 529 NSCLC) of 12.4 µM and a TGI (MDA-N) of 13.3 µM. The TGI (T-47D breast) was 13.2 µM.
N#CC(C#N)C(c1ccccc1)c1ccccc1 was tested, and the TGI (DLD-1 colon) was greater than 100 µM and the TGI (LXFL 529 NSCLC) was greater than 100 µM.
O=C1CC2OCC=C3CN4CCC5(C(=O)O)C(N1)C2C3CC45 (stereo unspecified) gave a TGI (BT-549 breast) greater than 100 µM, a TGI (MCF7 breast) greater than 100 µM and a TGI (MDA-MB-231 breast) greater than 100 µM. The TGI (MDA-N) was greater than 100 µM and the TGI (T-47D breast) was greater than 100 µM.
In the case of CN1C/C(=C\c2ccc(C(=O)O)cc2)C(=O)/C(=C/c2ccc(C(=O)O)cc2)C1, the TGI (DLD-1 colon) is reported as greater than 100 µM, the TGI (LXFL 529 NSCLC) is reported as greater than 100 µM and the TGI (XF 498 CNS) is reported as greater than 100 µM.
Work on NC1=Nc2ccccc2Sc2ccccc21 yielded a TGI (DLD-1 colon) greater than 100 µM and a TGI (XF 498 CNS) greater than 100 µM.
For COc1ccc(/C=C2/CSC/C(=C/c3ccc(OC)c(OC)c3)C2=O)cc1OC, the TGI (MCF7 breast) was greater than 100 µM, the TGI (MDA-MB-231 breast) was 8.18 µM and the TGI (LXFL 529 NSCLC) was 10.8 µM. For the same compound, the TGI (XF 498 CNS) was 25.8 µM, the TGI (MDA-N) was 8.89 µM and the TGI (T-47D breast) was 4.94 µM.
Work on Cc1nc(-n2nc(-c3ccccc3)cc2-c2ccccc2)sc1C(=O)/C=C/c1cccc([N+](=O)[O-])c1 yielded a TGI (DLD-1 colon) of 24.3 µM.
In the case of CCN1CCC(O)(/C=C/c2ccccc2)C(C(=O)/C=C/c2ccccc2)C1 (stereo unspecified), the TGI (DLD-1 colon) is reported as 8.22 µM, the TGI (LXFL 529 NSCLC) is reported as 3.56 µM and the TGI (XF 498 CNS) is reported as 18.5 µM.
In the case of C#C[C@@H](CCCC)OC(=O)N[C@H](C)c1ccccc1, the TGI (DLD-1 colon) is reported as greater than 100 µM, the TGI (LXFL 529 NSCLC) is reported as greater than 100 µM and the TGI (XF 498 CNS) is reported as greater than 100 µM.
With N/C(CC(=O)NOC(=O)c1ccccc1)=N/OC(=O)c1ccccc1 the TGI (BT-549 breast) was 77.6 µM, the TGI (MCF7 breast) was 92.4 µM and the TGI (MDA-MB-231 breast) was greater than 100 µM. It also gave a TGI (MDA-N) greater than 100 µM and a TGI (T-47D breast) greater than 100 µM.
CCN(CC)CCNc1ccc([N+](=O)[O-])c2nc3ccc(OC)cc3c(N)c12 gave a TGI (BT-549 breast) of 2.72 µM, a TGI (MCF7 breast) of 1.31 µM and a TGI (MDA-MB-231 breast) of 3.25 µM. It also gave a TGI (MDA-N) of 3.26 µM and a TGI (T-47D breast) of 3.16 µM.
Compound CN1CCN(c2nc3cc(F)ccc3n3cccc23)CC1 has a TGI (BT-549 breast) greater than 100 µM, a TGI (MCF7 breast) greater than 100 µM and a TGI (MDA-MB-231 breast) greater than 100 µM. For the same compound, the TGI (MDA-N) was greater than 100 µM and the TGI (T-47D breast) was greater than 100 µM.
Work on Nc1ccn(C2CC3OCC3O2)c(=O)n1 (stereo unspecified) yielded a TGI (BT-549 breast) greater than 100 µM, a TGI (MCF7 breast) greater than 100 µM and a TGI (MDA-MB-231 breast) greater than 100 µM. It also gave a TGI (MDA-N) greater than 100 µM and a TGI (T-47D breast) greater than 100 µM.
For COC(=O)Nc1nc2ccc(C(=O)c3cccs3)cc2[nH]1, the TGI (DLD-1 colon) was greater than 100 µM, the TGI (BT-549 breast) was 4.33 µM and the GI50 (MCF7 breast) was 0.0618 µM. The TGI (MCF7 breast) was 46.2 µM and > 100 µM, the GI50 (MDA-MB-231 breast) was 0.595 µM and the TGI (MDA-MB-231 breast) was 79.2 µM and > 100 µM. It also gave a TGI (LXFL 529 NSCLC) of 18.6 µM, a TGI (XF 498 CNS) of 0.0934 µM and a TGI (MDA-N) of 2.57 µM. For the same compound, the GI50 (T-47D breast) was greater than 100 µM and the TGI (T-47D breast) was greater than 100 µM.
For CC(CC(=O)Nc1ccc(NC(=O)CC(C)N=NC(N)=O)cc1)N=NC(N)=O (stereo unspecified), the TGI (DLD-1 colon) was greater than 100 µM, the TGI (LXFL 529 NSCLC) was greater than 100 µM and the TGI (XF 498 CNS) was greater than 100 µM.
For CC1/C(=N/O)CC(c2ccccc2)N(N=O)C1c1ccccc1 (stereo unspecified), the TGI (BT-549 breast) was greater than 100 µM, the TGI (MCF7 breast) was greater than 100 µM and the TGI (MDA-MB-231 breast) was greater than 100 µM. It also gave a TGI (MDA-N) greater than 100 µM and a TGI (T-47D breast) greater than 100 µM.
CCOC(=O)CC(C)C1(C=O)CCCCC1=O (stereo unspecified) showed a TGI (DLD-1 colon) greater than 100 µM, a TGI (LXFL 529 NSCLC) greater than 100 µM and a TGI (XF 498 CNS) greater than 100 µM.
In the case of CN(C)Cc1cc(C(C)(C)C)cc(CN(C)C)c1O, the TGI (BT-549 breast) is reported as greater than 100 µM, the TGI (MCF7 breast) is reported as greater than 100 µM and the TGI (MDA-MB-231 breast) is reported as greater than 100 µM. The TGI (MDA-N) was greater than 100 µM and the TGI (T-47D breast) was greater than 100 µM.
For Oc1ccc(O)c(-n2cccn2)c1-n1cccn1, the TGI (DLD-1 colon) was greater than 100 µM, the TGI (LXFL 529 NSCLC) was greater than 100 µM and the TGI (XF 498 CNS) was greater than 100 µM.
Compound C=CCCC(=O)CC(=O)OCc1ccccc1 has a TGI (DLD-1 colon) greater than 100 µM, a TGI (LXFL 529 NSCLC) greater than 100 µM and a TGI (XF 498 CNS) greater than 100 µM.
With COC1CC(n2cc(F)c(N)nc2=O)OC1CO (stereo unspecified) the TGI (DLD-1 colon) was greater than 100 µM, the TGI (LXFL 529 NSCLC) was greater than 100 µM and the TGI (XF 498 CNS) was greater than 100 µM.
COC(=O)C(/C(=N\O)C(=O)Nc1ccc(Br)cc1)c1nc2ccccc2[nH]c1=O (stereo unspecified) showed a TGI (DLD-1 colon) greater than 100 µM and a TGI (LXFL 529 NSCLC) of 80.5 µM.
CC[C@@H](C(=O)[C@@H](C)[C@@H](O)[C@H](C)[C@@H]1O[C@@H]([C@@H](CC)C(=O)O)CC[C@@H]1C)[C@H]1O[C@]2(C=C[C@@H](O)[C@]3(CC[C@@](C)([C@H]4CC[C@](O)(CC)[C@H](C)O4)O3)O2)[C@H](C)C[C@@H]1C was tested, and the GI50 (BT-549 breast) was 0.248 µM, the TGI (BT-549 breast) was 4.33 µM and the GI50 (MCF7 breast) was 0.315 µM. For the same compound, the TGI (MCF7 breast) was 13.1 µM, the GI50 (MDA-MB-231 breast) was 0.732 µM and the TGI (MDA-MB-231 breast) was 7.68 µM. For the same compound, the GI50 (T-47D breast) was 0.383 µM and the TGI (T-47D breast) was 16.7 µM.
Compound Cc1nc2sc(C(=O)Nc3ccccc3)c(N)c2cc1C(=O)c1ccccc1 has a GI50 (BT-549 breast) of 1.89 µM, a TGI (BT-549 breast) greater than 50 µM and a GI50 (MCF7 breast) of 1.73 µM. The TGI (MCF7 breast) was greater than 50 µM, the GI50 (MDA-MB-231 breast) was 3.04 µM and the TGI (MDA-MB-231 breast) was greater than 50 µM. For the same compound, the GI50 (T-47D breast) was 2.94 µM and the TGI (T-47D breast) was greater than 50 µM.
With CC1=CC(=O)N2C(OC[C@@H]2c2ccccc2)O1 (stereo partly specified) the TGI (DLD-1 colon) was greater than 100 µM, the TGI (LXFL 529 NSCLC) was greater than 100 µM and the TGI (XF 498 CNS) was greater than 100 µM.
Compound O=[N+]([O-])c1ccc2nc(-c3ccc(Cl)cc3)[nH]c2c1 has a TGI (BT-549 breast) of 64.6 µM, a TGI (MCF7 breast) of 62.8 µM and a TGI (MDA-MB-231 breast) of 81.5 µM. It also gave a TGI (MDA-N) of 51.1 µM and a TGI (T-47D breast) of 55.7 µM.

Reference: PubChem BioAssay (NCI)
